Test results: patent publication US20220218832A1, “POLYMER DRUG” (BIODYNAMIC RESEARCH FOUNDATION, priority 2019, published 2022)

Legend:
[1] = system: mouse colon cancer cells (C26); assay: In vitro cytotoxicity, MTT, mouse colon cancer cells C26 (Test Example 3); type: cell-based; conditions: ordinary medium containing 0.1% glucose
Experimental: These C26 cells subcultured intraperitoneally in mice were washed with a MEM medium (centrifugation, 1,500 rpm) and then adjusted the number of cells to 10^5/ml. […] Firstly, the above cells were cultured at a normal oxygen partial pressure for 24 to 30 hours, and then the culture medium [Petri dish, 96 wells] was transferred to a microaerobic conditions, which was made by adding a commercially available oxygen absorber to an anaerobic culture chamber, i.e., a hypoxic agent (oxygen absorber), AnaeroPack—Micro aero generator manufactured by Mitsubishi Gas Chemical Company, Inc., Tokyo, was added into an anaerobic culture chamber to be a microaerobic (hypoxic) oxygen partial pressure (6 to 9%). The sealed chamber used in this test was a medium square jar (3.5 L) manufactured by Sugiyama-Gen Co., Ltd., Tokyo. In this state, the reagents to be examined were added to each medium at a predetermined concentration, and further cultured for 36 hours. After that, the number of living cells was measured by the above MTT method.

[2] = Solubility of lyophilized product in distilled water; type: physicochemical; conditions: attempted 10 mg/ml solution
[3] = Particle size by dynamic light scattering; type: physicochemical; conditions: 0.1 M tris-HCl buffer (pH 8.2), 15 mg/ml, 25° C.
Experimental: Then, each solution was measured at 25° C. by a light scattering apparatus, Model ELSZ⋅2000ZS manufactured by Otsuka Electronics (Photal Inc., Osaka).

[4] = Surface charge (Zeta potential); type: physicochemical; conditions: deionized water, 20 mg/ml
[5] = pH of lyophilized product dissolved in distilled water; type: physicochemical
Colon cancer C26 cells = assay: In vitro cytotoxicity under normoxic and hypoxic partial pressures for 48 hours, C26 cells (Test Example 4); type: cell-based, mouse; conditions: especially under low oxygen partial pressures
Experimental: (§1) Colon cancer C26 and HeLa cells (1×10^4 cells/well) were seeded in Falcon 96-well culture plates and cultured overnight at 37° C. in Eagle MEM containing 10% FBS under normoxic partial pressure (5% CO2, 95% air) and hypoxic partial pressure (using a hypoxic chamber, pO2 6-8%). […] Finally, cell viability was analyzed by MTT assay.
(§2) C26 and HeLa cells were also cultured as described above (FIGS. 7A and 7B) and treated with glucosamine (G) and SMA-glucosamine (SG). Finally, cell viability was measured by MTT assay.

HeLa cells [6] = assay: In vitro cytotoxicity under normoxic and hypoxic partial pressures for 48 hours, HeLa cells (Test Example 4); type: cell-based; conditions: especially under low oxygen partial pressures
Experimental: as §1, §2

HeLa cells [7] = conditions: aerobic conditions, 24 hours drug treatment
Experimental: The culture of cells was performed in an Eagle MEM medium supplied with 10% fetal calf serum at 37° C. in 95% air/5% CO2. […] After that, the medium was replaced with a fresh medium and the culture was performed for further 24 hours. Then, viable cells was measured by the MTT method.

[8] = system: Escherichia coli (E. coli)
Experimental: (§3) Firstly, in a Falcon plastic plate with 96 wells, 0.1 ml of Mueller-Hinton medium was added to each well, followed by 10 μl of suspension of each bacterium (10^4/well).

Staphylococcus aureus = system: Staphylococcus aureus
Experimental: as §3

[9] = 24 hours, 37° C., boric acid equivalent

Row | Molecule | Cytostatic action, rank order [1] | Solubility in distilled water [2] | Average particle size (dynamic light scattering method) in diameter [3] [nm] | Surface charge (Zeta potential) [4] [mV] | Intrinsic pH in solution of lyophilized product in distilled water [5] | Cytotoxicity (cell viability, MTT) (Colon cancer C26 cells) | Cytotoxicity (cell viability, MTT) (HeLa cells [6]) | Growth of cancer cells (cell viability, MTT) (HeLa cells [7]) | Antibacterial activity compared with boric acid [8] | Concentration of boric acid at which antibacterial activity was shown [8, 9] | Antibacterial activity under more anaerobic conditions ([8]; more anaerobic conditions) | Antibacterial activity compared with boric acid (Staphylococcus aureus) | Concentration of boric acid at which antibacterial activity was shown (Staphylococcus aureus; [9]) | Antibacterial activity under more anaerobic conditions (Staphylococcus aureus; more anaerobic conditions)
1 | N[C@H]1C(O)O[C@H](CO)[C@@H](O)[C@@H]1O (stereo partly shown) [glucosamine, reference compound] | strengthened in the order of (A) free glucosamine, (B) SG and (C) SGB |  |  |  |  |  |  |  |  |  |  |  |  | 
2 | SMA-glucosamine conjugate [SG] | strengthened in the order of (A) free glucosamine, (B) SG and (C) SGB | poorly soluble | 90 ± 3 | −27 | 8.5 | very potent cytotoxicity | very potent cytotoxicity |  |  |  |  |  |  | 
3 | SMA-glucosamine-boric acid complex [SGB] | strengthened in the order of (A) free glucosamine, (B) SG and (C) SGB |  |  |  |  |  |  | significantly suppressed | stronger antibacterial activity than boric acid | lower than 10 mg/ml | further increased | stronger antibacterial activity than boric acid | lower than 10 mg/ml | further increased
